Measurements taken from patent publication US8021664B2, “Tumor antigens Bfa5 for prevention and/or treatment of cancer” (Sanofi Pasteur Limited, priority 2003, dated 2011).
Where no end group is shown, it is not given here. KLH = keyhole limpet hemocyanin carrier protein

Tests used:
peptide-loaded T2 cells = experiment: 51Cr-release CTL assay of peptide-activated T cells; conditions: a peptide given is positive
Procedure: In addition to ELISPOT analysis, human T cells activated by BFA5 peptides were assayed to determine their ability to function as CTL. The cells were activated using peptide-pulsed dendritic cells followed by CD40 ligand-activated B cells (5 rounds of stimulation). […] Isolated T cells were tested in ^51Cr-release assays using peptide-loaded T2 cells. The % specific lysis at a 10:1, 5:1, and 1:1 T-cell to target ratio is shown for T2 cells pulsed with either pools of BFA5/NYBR-1 peptides or with individual peptides.

HLA-A*0201 human T cells = experiment: IFN-γ ELISPOT on human T-cell cultures activated with BFA5 peptides pulsed on autologous dendritic cells; type: cell-based; conditions: for BFA5 peptides eliciting high IFN-γ release (>200 spots/100,000 cells): a peptide given is positive
Procedure: A library of 100 peptides from the BFA5/NYBR-1 coding sequence that are predicted to be medium to high binders to HLA-A*0201 were designed using Rammensee and Parker algorithms. The library was sub-divided into 10 pools of ten peptides (Table III), and each pool was used to activate 10 different T cell cultures after pulsing peptides on to mature autologous dendritic cells.
ELISPOT analysis was performed on human T-cell cultures activated through four rounds of stimulation with each pool of BFA5 peptides. Reactivity against a CMV pp 65 peptide and a Flu matrix peptide were used as positive controls for T-cell activation in the experiments. Each experiment was performed with PBMC and dendritic cells from a single HLA-A*0201^+ donor designated as “AP10”. […] Similar results were obtained for both BFA4 and BFA5/NYBR-1 with a different HLA-A*0201. […] Cultures having a reading of 600 spots have more than this number of spots.
A large number of the BFA5 peptide pools of are reactive as shown by the high levels of IFN-γ production. Each reactive peptide pool was then separated into individual peptides and analyzed for immunogencity using ELISPOT analysis to isolate single reactive BFA5 peptides. BFA5 is highly immunogenic with several reactive single peptides than that of BFA4. Similar results were obtained in two independent PBMC culture experiments.

[1] = Rabbit immunization with BFA5 peptides, serum IgG titer; type: in vivo; conditions: for IgG titer × 10^5 (After first Immunization Rb1/Rb2): after first immunization (peptide in FCA); for IgG titer × 10^5 (After second Immunization Rb1/Rb2): after second immunization (KLH-coupled peptide in FIA)
Procedure: Prebleed samples from rabbits were processed and stored at −20° C. Rabbits were immunized as follows: 1) the peptides were administered as an emulsion with Freund's Complete Adjuvant (FCA); and, 2) two weeks later, the peptides were coupled with Keyhole-Limpet Hemocyanin (KLH)-coupled and administered as an emulsion with Freund's Incomplete Adjuvant FIA.

## 24 (QLQSKNMWL; listed as Homo sapiens) [compound 24]
peptide-loaded T2 cells; Donor AP31
  BFA5 peptides inducing CTL lysis of pulsed cells: QLQSKNMWL
HLA-A*0201 human T cells; Donor AP10
  BFA5 peptides eliciting high IFN-γ release (>200 spots/100,000 cells): QLQSKNMWL
HLA-A*0201 human T cells; Donor AP31
  BFA5 peptides eliciting high IFN-γ release (>200 spots/100,000 cells): QLQSKNMWL

## 81 (ILKEKNAEL; listed as Homo sapiens) [compound 81]
HLA-A*0201 human T cells; Donor AP10
  BFA5 peptides eliciting high IFN-γ release (>200 spots/100,000 cells): ILKEKNAEL
HLA-A*0201 human T cells; Donor AP31
  BFA5 peptides eliciting high IFN-γ release (>200 spots/100,000 cells): ILKEKNAEL

## 61 (MLKKEIAML; listed as Homo sapiens) [compound 61]
HLA-A*0201 human T cells; Donor AP31
  BFA5 peptides eliciting high IFN-γ release (>200 spots/100,000 cells): MLKKEIAML

## KLH-TSEKFTWPAKGRPRKIAWEKKED ({KLH}-TSEKFTWPAKGRPRKIAWEKKED; listed as Homo sapiens) [CLP 2978]
[1]; rabbit Rb1
  IgG titer × 10^5 (After first Immunization Rb1/Rb2): 25/25 × 10^5
  IgG titer × 10^5 (After second Immunization Rb1/Rb2): 64 × 10^5
[1]; rabbit Rb2
  IgG titer × 10^5 (After first Immunization Rb1/Rb2): 25/25 × 10^5
  IgG titer × 10^5 (After second Immunization Rb1/Rb2): 256 × 10^5

## 9 (SIPTKALEL; listed as Homo sapiens) [compound 9]
peptide-loaded T2 cells; Donor AP31
  BFA5 peptides inducing CTL lysis of pulsed cells: SIPTKALEL
HLA-A*0201 human T cells; Donor AP10
  BFA5 peptides eliciting high IFN-γ release (>200 spots/100,000 cells): SIPTKALEL

## 11 (TVSQKDVCL; listed as Homo sapiens) [compound 11]
HLA-A*0201 human T cells; Donor AP10
  BFA5 peptides eliciting high IFN-γ release (>200 spots/100,000 cells): TVSQKDVCL

## 37 (SLTPLLLSI; listed as Homo sapiens) [compound 37]
peptide-loaded T2 cells; Donor AP31
  BFA5 peptides inducing CTL lysis of pulsed cells: SLTPLLLSI
HLA-A*0201 human T cells; Donor AP10
  BFA5 peptides eliciting high IFN-γ release (>200 spots/100,000 cells): SLTPLLLSI
HLA-A*0201 human T cells; Donor AP31
  BFA5 peptides eliciting high IFN-γ release (>200 spots/100,000 cells): SLTPLLLSI

## 49 (SVPNKAFEL; listed as Homo sapiens) [compound 49]
HLA-A*0201 human T cells; Donor AP10
  BFA5 peptides eliciting high IFN-γ release (>200 spots/100,000 cells): SVPNKAFEL

## 72 (SLKINLNYA; listed as Homo sapiens) [compound 72]
peptide-loaded T2 cells; Donor AP31
  BFA5 peptides inducing CTL lysis of pulsed cells: SLKINLNVA
HLA-A*0201 human T cells; Donor AP10
  BFA5 peptides eliciting high IFN-γ release (>200 spots/100,000 cells): SLKINLNYA
HLA-A*0201 human T cells; Donor AP31
  BFA5 peptides eliciting high IFN-γ release (>200 spots/100,000 cells): SLKINLNYA

## 85 (KCTALMLAV; listed as Homo sapiens) [compound 85]
HLA-A*0201 human T cells; Donor AP10
  BFA5 peptides eliciting high IFN-γ release (>200 spots/100,000 cells): KCTALMLAV

## 30 (KVMEINREV; listed as Homo sapiens) [compound 30]
HLA-A*0201 human T cells; Donor AP10
  BFA5 peptides eliciting high IFN-γ release (>200 spots/100,000 cells): KVMEINREV

## 77 (AELQMTLKL; listed as Homo sapiens) [compound 77]
peptide-loaded T2 cells; Donor AP10
  BFA5 peptides inducing CTL lysis of pulsed cells: AELQMTLKL
peptide-loaded T2 cells; Donor AP31
  BFA5 peptides inducing CTL lysis of pulsed cells: AELQMTLKL
HLA-A*0201 human T cells; Donor AP10
  BFA5 peptides eliciting high IFN-γ release (>200 spots/100,000 cells): AELQMTLKL

## BFA4: tumor antigen BFA4 (SEQ ID NOS.: 1 and 2), compared with BFA5 in T-cell ELISPOT
HLA-A*0201 human T cells; four rounds of stimulation, HLA-A*0201+ donor AP10, counts per 100,000 cells
  ELISPOT reactivity (IFN-γ production) of peptide pools: markedly reactive

## 54 (GVTAEHYAV; listed as Homo sapiens) [compound 54]
HLA-A*0201 human T cells; Donor AP31
  BFA5 peptides eliciting high IFN-γ release (>200 spots/100,000 cells): GVTAEHYAV

## KLH-NYNNHLKNRIYQYEKEKAETENS ({KLH}-NYNNHLKNRIYQYEKEKAETENS; listed as Homo sapiens) [CLP 2982]
[1]; rabbit Rb1
  IgG titer × 10^5 (After first Immunization Rb1/Rb2): 2/2 × 10^5
  IgG titer × 10^5 (After second Immunization Rb1/Rb2): 64 × 10^5
[1]; rabbit Rb2
  IgG titer × 10^5 (After first Immunization Rb1/Rb2): 2/2 × 10^5
  IgG titer × 10^5 (After second Immunization Rb1/Rb2): 32 × 10^5

## 78 (VFAADICGV; listed as Homo sapiens) [compound 78]
HLA-A*0201 human T cells; Donor AP31
  BFA5 peptides eliciting high IFN-γ release (>200 spots/100,000 cells): VFAADICGV

## 57 (KSQEPAFHI; listed as Homo sapiens) [compound 57]
HLA-A*0201 human T cells; Donor AP31
  BFA5 peptides eliciting high IFN-γ release (>200 spots/100,000 cells): KSQEPAFHI

## 74 (ATCGMKVSI; listed as Homo sapiens) [compound 74]
peptide-loaded T2 cells; Donor AP10
  BFA5 peptides inducing CTL lysis of pulsed cells: ATCGMKVSI
HLA-A*0201 human T cells; Donor AP10
  BFA5 peptides eliciting high IFN-γ release (>200 spots/100,000 cells): ATCGMKVSI

## KLH-MTKRKKTINLNIQDAQKRTALHW ({KLH}-MTKRKKTINLNIQDAQKRTALHW; listed as Homo sapiens) [CLP 2977]
[1]; rabbit Rb1
  IgG titer × 10^5 (After first Immunization Rb1/Rb2): 25 × 10^5
  IgG titer × 10^5 (After second Immunization Rb1/Rb2): 256 × 10^5
[1]; rabbit Rb2
  IgG titer × 10^5 (After first Immunization Rb1/Rb2): 6 × 10^5
  IgG titer × 10^5 (After second Immunization Rb1/Rb2): 64 × 10^5

## 32 (AVYSEILSV; listed as Homo sapiens) [compound 32]
HLA-A*0201 human T cells; Donor AP10
  BFA5 peptides eliciting high IFN-γ release (>200 spots/100,000 cells): AVYSEILSV

## KLH-DEILPSESKQKDYEENSWDTESL ({KLH}-DEILPSESKQKDYEENSWDTESL; listed as Homo sapiens) [CLP 2979]
[1]; rabbit Rb1
  IgG titer × 10^5 (After first Immunization Rb1/Rb2): 12 × 10^5
  IgG titer × 10^5 (After second Immunization Rb1/Rb2): 256 × 10^5
[1]; rabbit Rb2
  IgG titer × 10^5 (After first Immunization Rb1/Rb2): 25 × 10^5
  IgG titer × 10^5 (After second Immunization Rb1/Rb2): 512 × 10^5

## 84 (NLVDVYGNM; listed as Homo sapiens) [compound 84]
peptide-loaded T2 cells; Donor AP10
  BFA5 peptides inducing CTL lysis of pulsed cells: NLVDVYGNM
HLA-A*0201 human T cells; Donor AP10
  BFA5 peptides eliciting high IFN-γ release (>200 spots/100,000 cells): NLVDVYGNM

## KLH-RLTLNQEEEKRRNADILNEKIRE ({KLH}-RLTLNQEEEKRRNADILNEKIRE; listed as Homo sapiens) [CLP 2980]
[1]; rabbit Rb1
  IgG titer × 10^5 (After first Immunization Rb1/Rb2): 25 × 10^5
  IgG titer × 10^5 (After second Immunization Rb1/Rb2): 1024 × 10^5
[1]; rabbit Rb2
  IgG titer × 10^5 (After first Immunization Rb1/Rb2): 12 × 10^5
  IgG titer × 10^5 (After second Immunization Rb1/Rb2): 128 × 10^5

## 67 (VLKKKLSEA; listed as Homo sapiens) [compound 67]
HLA-A*0201 human T cells; Donor AP31
  BFA5 peptides eliciting high IFN-γ release (>200 spots/100,000 cells): VLKKKLSEA

## 63 (ALRIQDIEL; listed as Homo sapiens) [compound 63]
HLA-A*0201 human T cells; Donor AP10
  BFA5 peptides eliciting high IFN-γ release (>200 spots/100,000 cells): ALRIQDIEL

## 28 (SLSKILDTV; listed as Homo sapiens) [compound 28]
peptide-loaded T2 cells; Donor AP31
  BFA5 peptides inducing CTL lysis of pulsed cells: SLSKILDTV
HLA-A*0201 human T cells; Donor AP10
  BFA5 peptides eliciting high IFN-γ release (>200 spots/100,000 cells): SLSKILDTV
HLA-A*0201 human T cells; Donor AP31
  BFA5 peptides eliciting high IFN-γ release (>200 spots/100,000 cells): SLSKILDTV

## 8 (KVSIPTKAL; listed as Homo sapiens) [compound 8]
peptide-loaded T2 cells; Donor AP31
  BFA5 peptides inducing CTL lysis of pulsed cells: KVSIPTKAL
HLA-A*0201 human T cells; Donor AP10
  BFA5 peptides eliciting high IFN-γ release (>200 spots/100,000 cells): KVSIPTKAL

## 12 (SVPNKALEL; listed as Homo sapiens) [compound 12]
HLA-A*0201 human T cells; Donor AP10
  BFA5 peptides eliciting high IFN-γ release (>200 spots/100,000 cells): SVPNKALEL

## 51 (NLNYAGDAL; listed as Homo sapiens) [compound 51]
HLA-A*0201 human T cells; Donor AP10
  BFA5 peptides eliciting high IFN-γ release (>200 spots/100,000 cells): NLNYAGDAL
HLA-A*0201 human T cells; Donor AP31
  BFA5 peptides eliciting high IFN-γ release (>200 spots/100,000 cells): NLNYAGDAL

## KLH-AENTMLTSKLKEKQDKEILEAEI ({KLH}-AENTMLTSKLKEKQDKEILEAEI; listed as Homo sapiens) [CLP 2981]
[1]; rabbit Rb1
  IgG titer × 10^5 (After first Immunization Rb1/Rb2): 8 × 10^5
  IgG titer × 10^5 (After second Immunization Rb1/Rb2): 256 × 10^5
[1]; rabbit Rb2
  IgG titer × 10^5 (After first Immunization Rb1/Rb2): 4 × 10^5
  IgG titer × 10^5 (After second Immunization Rb1/Rb2): 64 × 10^5

## 59 (MLKLEIATL; listed as Homo sapiens) [compound 59]
peptide-loaded T2 cells; Donor AP31
  BFA5 peptides inducing CTL lysis of pulsed cells: MLKLEIATL
HLA-A*0201 human T cells; Donor AP10
  BFA5 peptides eliciting high IFN-γ release (>200 spots/100,000 cells): MLKLEIATL
HLA-A*0201 human T cells; Donor AP31
  BFA5 peptides eliciting high IFN-γ release (>200 spots/100,000 cells): MLKLEIATL
